The source made the active and inactive calls. No cut-off for these calls is given here.
How the values were obtained:
[1] = tested on: Plasmodium falciparum; assay: Induction of morphological changes in chloroquine-resistant Plasmodium falciparum W2 trophozoites assessed as degraded cytoplasm by TEM analysis; type: functional, organism-based
[2] = tested on: Plasmodium berghei; assay: Antimalarial activity against Plasmodium berghei ANKA infected in Albino Swiss mouse assessed as reduction in parasitemia at 15 mg/kg, po administered for 4 consecutive days measured after day 7 relative to control; type: functional; parameters: scale not given: the % may be the effect or the level left; settings: time 7 day
[3] = Cytotoxicity against African green monkey Vero cells incubated for 24 hrs by MTT assay; type: toxicity, cell-based; settings: chlorocebus sabaeus
[4] = Acute toxicity in Albino Swiss mouse assessed as change in defecation at 300 mg/kg, po administered as single dose measured after 14 days; type: organism-based; settings: in vivo, 336 h, time 14 day
[5] = Acute toxicity in Albino Swiss mouse assessed as change in relative weight of liver at 300 mg/kg, po administered as single dose measured after 14 days; type: organism-based; settings: in vivo, 336 h, time 14 day
[6] = Acute toxicity in Albino Swiss mouse assessed as change in relative weight of kidney at 300 mg/kg, po administered as single dose measured after 14 days; type: organism-based; settings: in vivo, 336 h, time 14 day
[7] = tested on: HepG2; assay: Cytotoxicity against human HepG2 cells incubated for 24 hrs by MTT assay; type: functional
[8] = tested on: Plasmodium berghei; assay: Antimalarial activity against Plasmodium berghei ANKA infected in Albino Swiss mouse assessed as half-survival time at 15 mg/kg, po administered for 4 consecutive days measured for 30 days (reference value: 16 day); type: functional; settings: time 30 day
[9] = Acute toxicity in Albino Swiss mouse assessed as escape reaction at 300 mg/kg, po administered as single dose measured after 14 days; type: organism-based; settings: in vivo, 336 h, time 14 day
[10] = Acute toxicity in Albino Swiss mouse assessed as change in urination volume at 300 mg/kg, po administered as single dose measured after 14 days; type: organism-based; settings: in vivo, 336 h, time 14 day
[11] = tested on: Plasmodium berghei; assay: Antimalarial activity against Plasmodium berghei ANKA infected in Albino Swiss mouse assessed as reduction in parasitemia at 30 mg/kg, po administered for 4 consecutive days measured after day 5 relative to control; type: functional; parameters: scale not given: the % may be the effect or the level left; settings: time 5 day
[12] = Acute toxicity in Albino Swiss mouse assessed as change in sensory function at 300 mg/kg, po administered as single dose measured after 14 days; type: organism-based; settings: in vivo, 336 h, time 14 day
[13] = Acute toxicity in Albino Swiss mouse assessed as change in motor function at 300 mg/kg, po administered as single dose measured after 14 days; type: organism-based; settings: in vivo, 336 h, time 14 day
[14] = Acute toxicity in Albino Swiss mouse assessed as behavioural toxicity at 300 mg/kg, po administered as single dose measured after 14 days; type: organism-based; settings: in vivo, 336 h, time 14 day
[15] = Acute toxicity in Albino Swiss mouse assessed as signs of pallor at 300 mg/kg, po administered as single dose measured after 14 days; type: organism-based; settings: in vivo, 336 h, time 14 day
[16] = Acute toxicity in Albino Swiss mouse assessed as aggressiveness at 300 mg/kg, po administered as single dose measured after 14 days; type: organism-based; settings: in vivo, 336 h, time 14 day
[17] = tested on: Plasmodium berghei; assay: Antimalarial activity against Plasmodium berghei ANKA infected in Albino Swiss mouse assessed as half-survival time at 30 mg/kg, po administered for 4 consecutive days measured for 30 days (reference value: 16 day); type: functional; settings: time 30 day
[18] = Acute toxicity in Albino Swiss mouse assessed as change in diarrhea at 300 mg/kg, po administered as single dose measured after 14 days; type: organism-based; settings: in vivo, 336 h, time 14 day
[19] = tested on: Plasmodium berghei; assay: Antimalarial activity against Plasmodium berghei ANKA infected in Albino Swiss mouse assessed as reduction in parasitemia at 30 mg/kg, po administered for 4 consecutive days measured after day 7 relative to control; type: functional; parameters: scale not given: the % may be the effect or the level left; settings: time 7 day
[20] = Acute toxicity in Albino Swiss mouse assessed as signs of hyperemia at 300 mg/kg, po administered as single dose measured after 14 days; type: organism-based; settings: in vivo, 336 h, time 14 day
[21] = Acute toxicity in Albino Swiss mouse assessed as change in urine color at 300 mg/kg, po administered as single dose measured after 14 days; type: organism-based; settings: in vivo, 336 h, time 14 day
[22] = Acute toxicity in Albino Swiss mouse assessed as contortions at 300 mg/kg, po administered as single dose measured after 14 days; type: organism-based; settings: in vivo, 336 h, time 14 day
[23] = Acute toxicity in Albino Swiss mouse assessed as signs of cyanosis at 300 mg/kg, po administered as single dose measured after 14 days; type: organism-based; settings: in vivo, 336 h, time 14 day
[24] = Toxicity in Albino Swiss mouse infected with Plasmodium berghei ANKA assessed as mortality rate at 15 to 30 mg/kg, po administered for 4 consecutive days measured for 14 days relative to control; type: organism-based; settings: in vivo, dose 15-30 mg/kg, time 14 day, read-out: Activity
[25] = tested on: Plasmodium berghei; assay: Antimalarial activity against Plasmodium berghei ANKA infected in Albino Swiss mouse assessed as reduction in parasitemia at 15 mg/kg, po administered for 4 consecutive days measured after day 5 relative to control; type: functional; parameters: scale not given: the % may be the effect or the level left; settings: time 5 day
[26] = Acute toxicity in Albino Swiss mouse assessed as signs of toxicity at 300 mg/kg, po administered as single dose measured after 14 days; type: organism-based; settings: in vivo, 336 h, time 14 day
[27] = Acute toxicity in Albino Swiss mouse assessed as change in relative weight of spleen at 300 mg/kg, po administered as single dose measured after 14 days; type: organism-based; settings: in vivo, 336 h, time 14 day
[28] = Acute toxicity in Albino Swiss mouse assessed as podocytes with discrete thickening of basal membrane in kidney at 300 mg/kg, po administered as single dose measured after 14 days by H and E staining based analysis; type: organism-based; settings: in vivo, 336 h, time 14 day
[29] = Hemolytic activity in human red blood cells assessed as hemoglobin release at 250 to 15.6 uM incubated for 60 mins by spectrophotometry; type: toxicity, cell-based, Erythrocyte; settings: dose 250-15.6 µM, read-out: Activity
[30] = Acute toxicity in Albino Swiss mouse assessed as congestion of hepatic portal vein in liver at 300 mg/kg, po administered as single dose measured after 14 days by H and E staining based analysis; type: organism-based; settings: in vivo, 336 h, time 14 day
[31] = tested on: Plasmodium falciparum; assay: Induction of morphological changes in chloroquine-resistant Plasmodium falciparum W2 at early trophozoite stage assessed as development-limiting of parasitophorous vacuole membrane by TEM analysis; type: functional, organism-based
[32] = Acute toxicity in Albino Swiss mouse assessed as developmment-delimiting germinal center in spleen at 300 mg/kg, po administered as single dose measured after 14 days by H and E staining based analysis; type: organism-based; settings: in vivo, 336 h, time 14 day
[33] = tested on: Plasmodium falciparum; assay: Induction of morphological changes in chloroquine-resistant Plasmodium falciparum W2 at early trophozoite stage assessed as degenerating organelles by TEM analysis; type: functional, organism-based
[34] = Acute toxicity in Albino Swiss mouse assessed as fusion of lymphoid follicles in spleen at 300 mg/kg, po administered as single dose measured after 14 days by H and E staining based analysis; type: organism-based; settings: in vivo, 336 h, time 14 day
[35] = Acute toxicity in Albino Swiss mouse assessed as congestion of globular center vein in liver at 300 mg/kg, po administered as single dose measured after 14 days by H and E staining based analysis; type: organism-based; settings: in vivo, 336 h, time 14 day
[36] = Acute toxicity in Albino Swiss mouse assessed as hyperplasia in spleen at 300 mg/kg, po administered as single dose measured after 14 days by H and E staining based analysis; type: organism-based; settings: in vivo, 336 h, time 14 day
[37] = Acute toxicity in Albino Swiss mouse assessed as animal mortality at 300 mg/kg, po administered as single dose measured after 14 days; type: organism-based; settings: in vivo, 336 h, time 14 day
[38] = Selectivity index, ratio of CC50 for African green monkey Vero cells to IC50 for chloroquine-resistant Plasmodium falciparum W2 infected in human erythrocytes; type: toxicity, cell-based; settings: read-out: Ratio CC50/IC50
[39] = Acute toxicity in Albino Swiss mouse assessed as activated macrophages in spleen at 300 mg/kg, po administered as single dose measured after 14 days by H and E staining based analysis; type: organism-based; settings: in vivo, 336 h, time 14 day
[40] = tested on: Plasmodium falciparum; assay: Induction of morphological changes in chloroquine-resistant Plasmodium falciparum W2 at early trophozoite stage assessed as rounded nucleus with degenerative changes by TEM analysis; type: functional, organism-based
[41] = Octanol-water partition coefficient, logP of the compound; type: physicochemical
[42] = Hemolytic activity in human red blood cells type A assessed as hemoglobin release at 500 to 1000 uM incubated for 60 mins by spectrophotometry; type: toxicity, cell-based, Erythrocyte; settings: dose 500-1000 µM, read-out: Activity
[43] = Acute toxicity in Albino Swiss mouse assessed as recurrent tubules with loss of polarity in kidney at 300 mg/kg, po administered as single dose measured after 14 days by H and E staining based analysis; type: organism-based; settings: in vivo, 336 h, time 14 day
[44] = Toxicity in Albino Swiss mouse infected with Plasmodium berghei ANKA assessed as animal survival at 30 mg/kg, po administered for 4 consecutive days measured for 14 days relative to control; type: organism-based; settings: in vivo, time 14 day
[45] = tested on: Plasmodium falciparum; assay: Antimalarial activity against chloroquine-resistant Plasmodium falciparum W2 infected in human erythrocytes assessed as parasite growth inhibition incubated for 48 hrs by geimsa staining based microscopy; type: functional, organism-based; settings: W2, Erythrocyte
[46] = tested on: Plasmodium falciparum; assay: Induction of morphological changes in chloroquine-resistant Plasmodium falciparum W2 at early trophozoite stage assessed as development-limiting of plasma membrane by TEM analysis; type: functional, organism-based
[47] = Acute toxicity in Albino Swiss mouse assessed as granular degeneration in liver at 300 mg/kg, po administered as single dose measured after 14 days by H and E staining based analysis; type: organism-based; settings: in vivo, 336 h, time 14 day
[48] = Acute toxicity in Albino Swiss mouse assessed as acidophilic cytoplasm with macro-vacuoles in liver at 300 mg/kg, po administered as single dose measured after 14 days by H and E staining based analysis; type: organism-based; settings: in vivo, 336 h, time 14 day
[49] = Acute toxicity in Albino Swiss mouse assessed as necrosis of hepatocytes at 300 mg/kg, po administered as single dose measured after 14 days by H and E staining based analysis; type: organism-based; settings: in vivo, 336 h, time 14 day
[50] = Acute toxicity in Albino Swiss mouse assessed as distribution of hemosiderophages in parenchyma of spleen at 300 mg/kg, po administered as single dose measured after 14 days by H and E staining based analysis; type: organism-based; settings: in vivo, 336 h, time 14 day
[51] = Acute toxicity in Albino Swiss mouse assessed as mesangial cells reduction in kidney at 300 mg/kg, po administered as single dose measured after 14 days by H and E staining based analysis; type: organism-based; settings: in vivo, 336 h, time 14 day
[52] = Acute toxicity in Albino Swiss mouse assessed as acidophilic cytoplasm with micro-steatosis in liver at 300 mg/kg, po administered as single dose measured after 14 days by H and E staining based analysis; type: organism-based; settings: in vivo, 336 h, time 14 day
[53] = Acute toxicity in Albino Swiss mouse assessed as atrophic glomerulus with congested capillaries in kidney at 300 mg/kg, po administered as single dose measured after 14 days by H and E staining based analysis; type: organism-based; settings: in vivo, 336 h, time 14 day
[54] = Selectivity index, ratio of CC50 for human HepG2 cells to IC50 for chloroquine-resistant Plasmodium falciparum W2 infected in human erythrocytes; type: toxicity, cell-based; settings: read-out: Ratio CC50/IC50

CCN(CC)CCCC(C)Nc1ccnc2cc(Cl)ccc12 (stereo unspecified) [CHLOROQUINE]
Activity [1]: Active
Activity [2]: 92%
CC50 at 24 h [3]: 35.8 µM
Activity [4]: Non-Toxic
Activity [5]: Non-Toxic
Activity [6]: Non-Toxic
CC50 [7]: > 200 µM
Survival [8]: 26 days
Activity [9]: Non-Toxic
Activity [10]: Non-Toxic
Activity [11]: 99%
Activity [12]: Non-Toxic
Activity [13]: Non-Toxic
Activity [14]: Non-Toxic
Activity [15]: Non-Toxic
Activity [16]: Non-Toxic
Survival [17]: 26 days
Activity [18]: Non-Toxic
Activity [19]: 98%
Activity [20]: Non-Toxic
Activity [21]: Non-Toxic
Activity [22]: Non-Toxic
Activity [23]: Non-Toxic
mortality at 336 h [24]: 20%
Activity [25]: 95%
Activity [26]: Non-Toxic
Activity [27]: Non-Toxic

O=C1C=C(NCCn2cc(C3(O)CCCCC3)nn2)C(=O)c2ccccc21
Activity [28]: Toxic
hemolysis at 1 h [29]: < 40%
CC50 at 24 h [3]: 1340 µM
Activity [4]: Non-Toxic
Activity [30]: Toxic
Activity [31]: Active
Activity [5]: Non-Toxic
Activity [32]: Toxic
Activity [33]: Active
Activity [34]: Toxic
Activity [35]: Toxic
Activity [36]: Toxic
Activity [37]: Non-Toxic
selectivity ratio [38]: 495
Activity [39]: Toxic
Activity [6]: Non-Toxic
CC50 [7]: 441 µM
Activity [40]: Active
logP [41]: 2.55
Activity [9]: Non-Toxic
hemolysis at 1 h, up to 1000 µM [42]: > 40%
Activity [10]: Non-Toxic
Activity [11]: 38.5%
Activity [12]: Non-Toxic
Activity [13]: Non-Toxic
Activity [14]: Non-Toxic
Activity [15]: Non-Toxic
Activity [16]: Non-Toxic
Survival [17]: 38.5 days
Activity [18]: Non-Toxic
Activity [43]: Toxic
Activity [19]: 35%
survival at 336 h [44]: 100%
Activity [20]: Non-Toxic
Activity [21]: Non-Toxic
Activity [22]: Non-Toxic
IC50 [45]: 2700 nM
Activity [46]: Active
Activity [23]: Non-Toxic
Activity [47]: Toxic
Activity [48]: Toxic
Activity [49]: Toxic
Activity [50]: Toxic
Activity [51]: Toxic
Activity [26]: Non-Toxic
Activity [27]: Non-Toxic
Activity [52]: Toxic
Activity [53]: Toxic
selectivity ratio [54]: 163

— ChEMBL document CHEMBL5321233, “Biological activity of 1,2,3-triazole-2-amino-1,4-naphthoquinone derivatives and their evaluation as therapeutic strategy for malaria control” (Eur J Med Chem, 2023)
